The source of these data is patent US20040176317A1, “Functionalised maltosyl fluoride as glycosyl donor in the chemo-enzymatic preparation of ratio of oligo-or polysaccharides” (priority 2001, published 2004).

A short description of the data set: Storage stability of the lyophilized fluoride. The data set is classed as physicochemical. Conditions: for stability of the fluoride: at −18° C. in the lyophilized form. The procedure: This fluoride is stable at −18° C. in the lyophilized form.

As to `OCC1O[C@H](O[C@@H]2C(CO)O[C@H](F)C(O)C2O)C(O)C(O)[C@@H]1OC1CCCCO1` (stereo partly drawn) [Example 1e, 4-0-tetrahydropyranyl-α-D-glucopyran-osyl-(1→4)-α-D-glucopyranosyl fluoride], the first decomposition compound entry was “α-maltosyl fluoride” and the “stability of the fluoride” value is recorded as “stable”. `OC[C@H]1O[C@H](F)[C@H](O)[C@@H](O)[C@@H]1O[C@H]1O[C@H](CBr)[C@@H](OC2CCCCO2)[C@H](O)[C@H]1O` (stereo partly drawn) [Example 4d, 6-bromo-6-deoxy-4-O-tetrahydro-pyranyl-α-D-glucopyranosyl-(1→4)-α-D-glucopyranosyl fluoride]: the “stability of the fluoride” value is on record as “stable”.
